Results as given in US20170151221A1, “PHARMACEUTICAL COMPOSITIONS COMPRISING CEFEPIME OR SULBACTAM” (priority 2014, published 2017).
Where two headings read alike, the source gives them in different places.

Experiments:
[1] = tested on: A. baumannii 1363934 [OXA 51, OXA 23]; test: MIC by agar dilution (Muller Hinton Agar, CLSI); format: cell-based; conditions: Acinetobacter baumannii
Description: (§1) The antibacterial activity of combinations according to the invention was investigated against various bacterial strains. In a typical study, minimum inhibitory concentrations (MIC) were determined using Muller Hinton Agar (MHA) (BD, USA) according to Clinical and Laboratory Standards Institute (CLSI) recommendations, (Clinical and Laboratory Standards Institute (CLSI), Performance Standards for Antimicrobial Susceptibility Testing, 20th Informational Supplement, M 100-S20, Volume 30, No. 1, 2010). In short, the inocula were adjusted to deliver about 10^4 colony forming units (CFU) per spot with a multipoint inoculator (Applied Quality Services, UK). The plates were pored with doubling concentration range of the test combinations according to invention containing MHA. The plates were inoculated and were incubated at 35° C. for 18 hours.

[2] = tested on: A. baumannii 1449880 [OXA 51, OXA 23]; test: MIC by agar dilution (Muller Hinton Agar, CLSI); format: cell-based; conditions: Acinetobacter baumannii
Description: as §1

[3] = tested on: A. baumannii J 145 [OXA 51, OXA 24]; test: MIC by agar dilution (Muller Hinton Agar, CLSI); format: cell-based; conditions: Acinetobacter baumannii
Description: as §1

[4] = tested on: A. baumannii NCTC 13302 [OXA 51, OXA 25]; test: MIC by agar dilution (Muller Hinton Agar, CLSI); format: cell-based; conditions: Acinetobacter baumannii
Description: as §1

[5] = tested on: A. baumannii NCTC 13304 [OXA 51, OXA 27]; test: MIC by agar dilution (Muller Hinton Agar, CLSI); format: cell-based; conditions: Acinetobacter baumannii
Description: as §1

[6] = tested on: A. baumannii S 8 [OXA 51, OXA 23]; test: MIC by agar dilution (Muller Hinton Agar, CLSI); format: cell-based; conditions: Acinetobacter baumannii
Description: as §1

[7] = tested on: Acinetobacter baumannii NCTC 13301 producing Carbapenemase hydrolyzing OXA 23 enzyme; test: Time kill study; format: cell-based; conditions: for Effect on bacterial count throughout the duration of the study (in words): cefepime, sulbactam, imipenem at 8 mcg/ml, compound of Formula (I) at 4 mcg/ml, alone or in combination
Description: (§2) The synergistic killing effect of the combinations according to invention was studied by performing typical time kill studies. Typically, freshly grown cultures were diluted to the required cell density (initial starting inoculum) in Cation adjusted Muller Hinton broth medium (BD, USA). The antibacterial agents at the required concentrations were added into the culture-containing medium either alone or in combination. The samples were incubated under shaking condition (120 rpm) at 37° C. Enumeration of viable bacterial count was undertaken, every 2 hour, by diluting in normal saline and plating on to the Tryptic Soya Agar plates (BD, USA). The plates were incubated for 24 hours to arrive at the viable bacterial count. […] The decrease of 1 Log CFU/ml, after administration of combination of present invention, in comparison to initial bacterial count corresponds to 90% killing of bacteria. Similarly, 2 Log CFU/ml reductions corresponds to 99% killing of bacteria and 3 Log CFU/ml reductions is equal to 99.9% killing of bacteria.
(§3) The assay without any antibacterial agent was taken as control.

[8] = tested on: Acinetobacter baumannii NCTC 13302 producing carbapenemase hydrolyzing OXA 25 enzyme; test: Time kill study; format: cell-based; conditions: for Effect on bacterial count throughout the duration of the study (in words): cefepime, sulbactam, imipenem at 8 mcg/ml, compound of Formula (I) at 4 mcg/ml, alone or in combination
Description: as §2, §3

[9] = tested on: carbapenam hydrolyzing (CHDL) and oxacillinases (OXA) producing Acinetobactor strains; test: Antibacterial activity, summary statements over Tables 1-3; format: cell-based, Acinetobacter baumannii; conditions: for Change of MIC values in the presence of compound of Formula (I) (in words): Table 1 strains, compound of Formula (I) at 4 or 8 mcg/ml; for Antibacterial effect against highly resistant strains of A. baumannii (in words): summary of Tables 1-3
Description: as §1, §2

[10] = agent alone, A. baumannii 1363934, read-out: MIC
[11] = agent alone, A. baumannii 1449880, read-out: MIC
[12] = agent alone, A. baumannii J 145, read-out: MIC
[13] = NCTC13302, agent alone, A. baumannii NCTC 13302, read-out: MIC
[14] = NCTC13304, agent alone, A. baumannii NCTC 13304, read-out: MIC
[15] = agent alone, A. baumannii S 8, read-out: MIC
[16] = 0 hours, agent alone at 8 mcg/ml
[17] = 2 hours, agent alone at 8 mcg/ml
[18] = 4 hours, agent alone at 8 mcg/ml
[19] = 6 hours, agent alone at 8 mcg/ml
[20] = 8 hours, agent alone at 8 mcg/ml
[21] = 0 hours, agent alone at 4 mcg/ml
[22] = 2 hours, agent alone at 4 mcg/ml
[23] = 4 hours, agent alone at 4 mcg/ml
[24] = 6 hours, agent alone at 4 mcg/ml
[25] = 8 hours, agent alone at 4 mcg/ml
[26] = read-out: MIC (mcg/ml) in presence of Compound of Formula (I) at 4 mcg/ml
[27] = read-out: MIC (mcg/ml) in presence of Compound of Formula (I) at 8 mcg/ml

Row | SMILES | MIC [1, 10] [µg/mL] | MIC [2, 11] [µg/mL] | MIC [3, 12] [µg/mL] | MIC [4, 13] [µg/mL] | MIC [5, 14] [µg/mL] | MIC [6, 15] [µg/mL] | Bacterial count (Log10 CFU/ml) [7, 16] [Log10 CFU/ml] | Bacterial count (Log10 CFU/ml) [7, 17] [Log10 CFU/ml] | Bacterial count (Log10 CFU/ml) [7, 18] [Log10 CFU/ml] | Bacterial count (Log10 CFU/ml) [7, 19] [Log10 CFU/ml] | Bacterial count (Log10 CFU/ml) [7, 20] [Log10 CFU/ml] | Effect on bacterial count throughout the duration of the study (in words) ([7]; 8 hours) | Bacterial count (Log10 CFU/ml) [8, 16] [Log10 CFU/ml] | Bacterial count (Log10 CFU/ml) [8, 17] [Log10 CFU/ml] | Bacterial count (Log10 CFU/ml) [8, 18] [Log10 CFU/ml] | Bacterial count (Log10 CFU/ml) [8, 19] [Log10 CFU/ml] | Bacterial count (Log10 CFU/ml) [8, 20] [Log10 CFU/ml] | Effect on bacterial count throughout the duration of the study (in words) ([8]; 8 hours) | Change of MIC values in the presence of compound of Formula (I) (in words) [9] | Antibacterial effect against highly resistant strains of A. baumannii (in words) [9] | also measured
1 | CO/N=C(\C(=O)N[C@@H]1C(=O)N2C(C(=O)[O-])=C(C[N+]3(C)CCCC3)CS[C@H]12)c1csc(N)n1 [Cefepime] | > 32 | > 32 | 32 | 32 | 32 | > 32 | 6.32 | 8.26 | 8.06 | 8.26 | 8.13 | not effective to decrease the bacterial count | 6.30 | 7.740 | 7.929 | 7.662 | 7.56 | not effective to decrease the bacterial count | significantly decreased | ineffective | MIC ([1]; with Compound of Formula (I) at 4 mcg/ml, A. baumannii 1363934, read-out: MIC (mcg/ml) in presence of Compound of Formula (I) at 4 mcg/ml): 16 µg/mL; MIC ([1]; with Compound of Formula (I) at 8 mcg/ml, A. baumannii 1363934, read-out: MIC (mcg/ml) in presence of Compound of Formula (I) at 8 mcg/ml): 8 µg/mL; MIC ([2]; with Compound of Formula (I) at 4 mcg/ml, A. baumannii 1449880, read-out: MIC (mcg/ml) in presence of Compound of Formula (I) at 4 mcg/ml): 2 µg/mL; MIC ([2]; with Compound of Formula (I) at 8 mcg/ml, A. baumannii 1449880, read-out: MIC (mcg/ml) in presence of Compound of Formula (I) at 8 mcg/ml): 2 µg/mL; MIC ([3]; with Compound of Formula (I) at 4 mcg/ml, A. baumannii J 145, read-out: MIC (mcg/ml) in presence of Compound of Formula (I) at 4 mcg/ml): 16 µg/mL; MIC ([3]; with Compound of Formula (I) at 8 mcg/ml, A. baumannii J 145, read-out: MIC (mcg/ml) in presence of Compound of Formula (I) at 8 mcg/ml): 8 µg/mL; MIC ([4]; NCTC13302, with Compound of Formula (I) at 4 mcg/ml, A. baumannii NCTC 13302, read-out: MIC (mcg/ml) in presence of Compound of Formula (I) at 4 mcg/ml): 8 µg/mL; MIC ([4]; NCTC13302, with Compound of Formula (I) at 8 mcg/ml, A. baumannii NCTC 13302, read-out: MIC (mcg/ml) in presence of Compound of Formula (I) at 8 mcg/ml): 8 µg/mL; MIC ([5]; NCTC13304, with Compound of Formula (I) at 4 mcg/ml, A. baumannii NCTC 13304, read-out: MIC (mcg/ml) in presence of Compound of Formula (I) at 4 mcg/ml): 8 µg/mL; MIC ([5]; NCTC13304, with Compound of Formula (I) at 8 mcg/ml, A. baumannii NCTC 13304, read-out: MIC (mcg/ml) in presence of Compound of Formula (I) at 8 mcg/ml): 4 µg/mL; MIC ([6]; with Compound of Formula (I) at 4 mcg/ml, A. baumannii S 8, read-out: MIC (mcg/ml) in presence of Compound of Formula (I) at 4 mcg/ml): 8 µg/mL; MIC ([6]; with Compound of Formula (I) at 8 mcg/ml, A. baumannii S 8, read-out: MIC (mcg/ml) in presence of Compound of Formula (I) at 8 mcg/ml): 8 µg/mL
2 | O=C(NNC(=O)[C@@H]1CC[C@@H]2CN1C(=O)N2OS(=O)(=O)O)[C@@H]1CCNC1 [Compound of Formula (I), trans-sulfuric acid mono-[2-(N′-[(R)-pyrrolidin-3-carbonyl]-hydrazinocarbonyl)-7-oxo-1,6-diaza-bicyclo[3.2.1]oct-6-yl] ester] | > 128 | > 128 | > 128 | > 128 | > 128 | > 128 |  |  |  |  |  | not effective to decrease the bacterial count |  |  |  |  |  | not effective to decrease the bacterial count |  | ineffective | Bacterial count (Log10 CFU/ml) [7, 21]: 6.32 Log10 CFU/ml; Bacterial count (Log10 CFU/ml) [7, 22]: 8.02 Log10 CFU/ml; Bacterial count (Log10 CFU/ml) [7, 23]: 8.36 Log10 CFU/ml; Bacterial count (Log10 CFU/ml) [7, 24]: 8.35 Log10 CFU/ml; Bacterial count (Log10 CFU/ml) [7, 25]: 8.39 Log10 CFU/ml; Bacterial count (Log10 CFU/ml) [8, 21]: 6.30 Log10 CFU/ml; Bacterial count (Log10 CFU/ml) [8, 22]: 7.903 Log10 CFU/ml; Bacterial count (Log10 CFU/ml) [8, 23]: 7.845 Log10 CFU/ml; Bacterial count (Log10 CFU/ml) [8, 24]: 7.875 Log10 CFU/ml; Bacterial count (Log10 CFU/ml) [8, 25]: 8.04 Log10 CFU/ml
3 | CC1(C)[C@H](C(=O)O)N2C(=O)C[C@H]2S1(=O)=O [Sulbactam] |  |  |  |  |  |  | 6.32 | 7.27 | 7.65 | 7.74 | 7.81 | not effective to decrease the bacterial count | 6.30 | 7.39 | 7.69 | 7.34 | 7.34 | not effective to decrease the bacterial count | significantly decreased | ineffective | MIC ([1]; read-out: MIC (mcg/ml)): 16 µg/mL; MIC [1, 26]: 2 µg/mL; MIC [1, 27]: 2 µg/mL; MIC ([2]; read-out: MIC (mcg/ml)): 8 µg/mL; MIC [2, 26]: 0.5 µg/mL; MIC [2, 27]: 0.5 µg/mL; MIC ([3]; read-out: MIC (mcg/ml)): 16 µg/mL; MIC [3, 26]: 2 µg/mL; MIC [3, 27]: 2 µg/mL; MIC ([4]; NCTC13302, read-out: MIC (mcg/ml)): 16 µg/mL; MIC ([4]; NCTC13302, read-out: MIC (mcg/ml) in presence of Compound of Formula (I) at 4 mcg/ml): 2 µg/mL; MIC ([4]; NCTC13302, read-out: MIC (mcg/ml) in presence of Compound of Formula (I) at 8 mcg/ml): 1 µg/mL; MIC ([5]; NCTC13304, read-out: MIC (mcg/ml)): 16 µg/mL; MIC ([5]; NCTC13304, read-out: MIC (mcg/ml) in presence of Compound of Formula (I) at 4 mcg/ml): 2 µg/mL; MIC ([5]; NCTC13304, read-out: MIC (mcg/ml) in presence of Compound of Formula (I) at 8 mcg/ml): 2 µg/mL; MIC ([6]; read-out: MIC (mcg/ml)): 16 µg/mL; MIC [6, 26]: 8 µg/mL; MIC [6, 27]: 4 µg/mL
